{"source": "patent US20070009895A1", "about": "“Method of interaction analysis and interaction analyzer” (priority 2003, published 2007)", "target": "human FKBP12 (Homo sapiens, UniProt P62942)", "sequence (P62942 whole entry)": "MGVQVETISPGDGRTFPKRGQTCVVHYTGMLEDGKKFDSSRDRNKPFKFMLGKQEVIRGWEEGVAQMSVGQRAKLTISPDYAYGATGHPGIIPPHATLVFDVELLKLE", "settings": "Measurement 3; first solutions of two or three samples, one of them 100 μM FKBP12, others HSA", "from_the_text": "An apparatus for analyzing interactions in this example includes a column TSK super SW2000 for size exclusion chromatography (column size: 1.0 ID×10 mm, 1.0 ID×30 mm or 1.0 ID×100 mm, manufactured by Tosoh Corporation) for a separation channel 1. The apparatus for analyzing interactions also includes an auto injector HTC-PAL (manufactured by CTC Analytics AG) for a container section 3, and a LC pump (Agilent 1100, manufactured by Yokogawa) for an introduction device 4. The apparatus for analyzing interactions also includes an ion trap mass spectrometer LCQ deca XP (ThermoQuest) for a detection device 5.\nThe auto injector HTC-PAL (CTC Analytics AG) includes a sample loop of 5 μL or 10 μL, a syringe of 10 μL, and sample trays with a cooling unit. A first solution was introduced by 50 μL into a 2 mL screw vial with a conical insert of 100 μL inserted therein. A screw cap with a septum was put on the vial and the vial was placed in a 54 vial rack and the rack was set in one of the sample trays. A second solution was introduced by 40 μL into each well of a 384 well-microplate, and the microplate was covered with an aluminum seal and set in another sample tray. The sample trays were set at the temperature of 10 degrees C. […]", "data": [{"smiles": "CC[C@@H]1/C=C(\\C)C[C@H](C)C[C@H](OC)[C@H]2O[C@@](O)(C(=O)C(=O)N3CCCC[C@H]3C(=O)O[C@H](/C(C)=C/[C@@H]3CC[C@@H](O)[C@H](OC)C3)[C@H](C)[C@@H](O)CC1=O)[C@H](C)C[C@@H]2OC", "note": "[Ascomycin]", "values": [{"measurement": "interaction with FKBP12 (peaks in mass chromatogram of the compound)", "result": "interaction between Ascomycin and FKBP12 is able to be detected"}]}]}
